Consider one substance from patent US9642895B2, “Peptides for enhancing transdermal delivery” (3M INNOVATIVE PROPERTIES COMPANY, priority 2013, dated 2017).

In the assay the test system is hairless guinea pig skin. Kind of assay: In vitro penetration of FITC through full skin. The class given is in vitro ADME. To be noted: peptide 2.5 mg/mL with FITC sodium salt 0.05 mg/mL in PBS; 3 hours at room temperature then 4° C. overnight; UV 340 nm. How it is done:
An in vitro assay to test for skin penetration enhancement was conducted using hairless guinea pig skin. A full skin sample from the back region of the animal was used. The test sample was prepared containing FITC sodium salt (at a concentration of 0.05 mg/mL), the peptide SHSACLDNTFRACG (Sequence ID No: 17) at a concentration of 2.5 mg/mL, and PBS (40 microliters). The control sample was prepared containing only FITC sodium salt (at a concentration of 0.05 mg/mL), and PBS (40 microliters). Each sample was applied to a separate 0.25 cm^2 section on the stratum corneum side of the guinea pig skin using a PIPETMAN Classic pipet. The treated skin samples were covered, maintained at room temperature for 3 hours and then at 4° C. overnight. The side of the skin sample opposite the application side was visually examined under ultraviolet light (340 nm). Visualization of a fluorescent spot on the side of the skin directly opposite from the application site was used to confirm penetration of FITC through the skin. […] For the control sample a fluorescent spot was not visualized on the side of the skin directly opposite from the application site.

For “17 (SHSACLDNTFRACG; Phage display library peptides) [compound 17]”, the “fluorescent spot on the side of the skin directly opposite from the application site (penetration of FITC through the skin)” value is reported as “a fluorescent spot was visualized”.
